According to patent US11235043B2, “Vaccines against antigens involved in therapy resistance and methods of using same” (Duke University, priority 2012, dated 2022):

Test system: 4T1-HER2 expressing tumors
Test: Survivin expression in the mouse 4T1-HER2 tumor model
Type: in vivo

**Q.** How did the survivin expression turn out when `CS(=O)(=O)CCNCc1ccc(-c2ccc3ncnc(Nc4ccc(OCc5cccc(F)c5)c(Cl)c4)c3c2)o1` [lapatinib] was run?
**A.** no change in survivin expression
